A short description of data set [1]: Test 2: thermal analysis, stability against heat by differential scanning calorimeter. The settings on record: temperature rise rate 10° C./min. It counts as physicochemical. An excerpt:
The samples shown in Table 2 were examined for stability against heat with a differential scanning calorimeter (model DSC 3100, manufactured by MAC Science).

The nature of data set [2]: Test 4: dissolution test (Japanese Pharmacopoeia Method 2) in second fluid. It counts as physicochemical. The note with it: second fluid of the Japanese Pharmacopoeia; dissolved cefditoren pivoxil determined at 272 nm. The method, then: For each sample shown in Table 2, a dissolution test (see The Japanese Pharmacopoeia, Fourteenth Edition, Part I, General Tests “56. Dissolution test, Method 2”) was carried out in a second fluid specified in the Japanese Pharmacopoeia (a fluid prepared by adding 118 mL of a 0.2 mol/L sodium hydroxide reagent solution and water to 250 mL of a 0.2 mol/L potassium dihydogenphosphate reagent solution; the amount of the water being a sufficient amount to bring the total volume of the fluid to 1,000 mL). The fluid with the sample dissolved therein was sampled at fixed intervals of time and was filtered through a glass filter G-4 manufactured by TOYAMA SANGYO Co., Ltd., and the amount of dissolved cefditoren pivoxil was then quantitatively determined at a measuring wavelength of 272 nm with a spectrophotometer (UV-160, manufactured by Shimadzu Seisakusho Ltd.

Each structure is given as a SMILES string.

For `CO/N=C(\C(=O)N[C@@H]1C(=O)N2C(C(=O)OCOC(=O)C(C)(C)C)=C(/C=C\c3scnc3C)CS[C@H]12)c1csc(N)n1` [amorphous cefditoren pivoxil, (−)-(6R,7R)-7-[(Z)-2-(2-aminothiazol-4-yl)-2-methoxyiminoacetamido]-3-[(Z)-2-(4-methylthiazol-5-yl)ethenyl]-8-oxo-5-thia-1-azabicyclo[4.2.0]oct-2-ene-2-carboxylic acid 2,2-dimethylpropionyloxymethyl ester], the “exothermic peak in DSC curve (transfer to a crystalline state)” value in data set [1] was “around 140 °C”.
For the compound `CO/N=C(\C(=O)N[C@@H]1C(=O)N2C(C(=O)OCOC(=O)C(C)(C)C)=C(/C=C\c3scnc3C)CS[C@H]12)c1csc(N)n1` [crystalline cefditoren pivoxil, (−)-(6R,7R)-7-[(Z)-2-(2-aminothiazol-4-yl)-2-methoxyiminoacetamido]-3-[(Z)-2-(4-methylthiazol-5-yl)ethenyl]-8-oxo-5-thia-1-azabicyclo[4.2.0]oct-2-ene-2-carboxylic acid 2,2-dimethylpropionyloxymethyl ester], the “dissolvability (dissolution curve of cefditoren pivoxil)” value in data set [2] is “substantially no difference in dissolvability”.

For the origin of these results see patent US7527808B2, “Amorphous cefditoren pivoxil composition and process for producing the same” (Meiji Seika Kaisha, Ltd., priority 2001, dated 2009).
